This note sets out measurements from ChEMBL document CHEMBL1139505, “Synthesis and structure-activity-relationships of 1H-imidazo[4,5-c]quinolines that induce interferon production” (2005).

The species entered for one assay is Homo sapiens. As to the kind of experiment: Minimum effective concentration required to induce interferon (IFN) production in human peripheral blood mononuclear cells (hPBMC); NI = no induction at highest concentration (5.0 ug/mL). It counts as functional.
Settings: not given
As to `COc1cccc2c1nc(N)c1ncn(CC(C)C)c12`, the MEC result was “No induction”.

`COc1nc2c(N)nc3ccccc3c2n1CC(C)C`: the MEC result was “No induction”.

With `CC(C)Cn1c(C(F)(F)F)nc2c(N)nc3ccccc3c21`, the MEC result is “No induction”.

Consider `COc1nc2ccccc2c2c1ncn2CC(C)C`, for which the MEC entry was “No induction”.

`CC(C)Cn1cnc2c(N)nc3ccc(O)cc3c21`: the MEC entry was “No induction”.

As for `CC(C)Cn1cnc2c(N)nc3ccc([N+](=O)[O-])cc3c21`, the MEC result is “No induction”.

`Cc1cccc2nc(N)c3ncn(CC(C)C)c3c12`: the MEC result was “No induction”.

In the case of `CC(C)Cn1cnc2c(N)nc3ccc(Br)cc3c21`, the MEC result was “No induction”.

Regarding `COc1ccc2nc(N)c3ncn(CC(C)C)c3c2c1`, the MEC result is “No induction”.

For the compound `CSc1nc2ccccc2c2c1ncn2CC(C)C`, the MEC entry was “No induction”.

As for `CC(C)Cn1c(-c2ccccc2)nc2c(N)nc3ccccc3c21`, the MEC entry is “No induction”.

Take `Cc1ccc2nc(N)c3ncn(CC(C)C)c3c2c1`: the MEC entry is “No induction”.

For `Cc1cccc2c1nc(N)c1ncn(CC(C)C)c12`, the MEC entry is “No induction”.

As to `CC(C)Cn1cnc2c(N)nc3ccc(N)cc3c21`, the MEC entry is “No induction”.

Regarding `CC(C)(C)n1cnc2c(N)nc3ccccc3c21`, the MEC result is “No induction”.

For `CCCCCCCCn1cnc2c(N)nc3ccccc3c21`, the MEC entry was “No induction”.

For `CNc1nc2ccccc2c2c1ncn2CC(C)C`, the MEC result was “No induction”.

In the case of `CCCCCCCCCCCCCCCCn1cnc2c(N)nc3ccccc3c21`, the MEC entry is “No induction”.

Consider `CC(C)Cn1cnc2c(Cl)nc3ccccc3c21`, for which the MEC entry was “No induction”.

As to `CC(C)Cn1cnc2c(N)nc3ccc(Cl)cc3c21`, the MEC entry was “No induction”.

Regarding `Nc1nc2ccccc2c2c1ncn2CCCc1ccccc1`, the MEC entry is “No induction”.

On to `CC(C)Cn1cnc2cnc3ccccc3c21`, for which the MEC result was “No induction”.

For the compound `CC(C)Cn1c(Oc2ccccc2)nc2c(N)nc3ccccc3c21`, the MEC result was “No induction”.

`CC(C)Cn1cnc2c(O)nc3ccccc3c21`: the MEC entry is “No induction”.

Turning to `Nc1nc2ccccc2c2c1ncn2-c1ccccc1`, the MEC result was “No induction”.

`CC(C)Cn1cnc2c(NC(=O)c3ccccc3)nc3ccccc3c21`: the MEC result was “No induction”.

Test system in a further assay: not listed separately
As to the kind of experiment: Minimum effective concentration required to induce interferon (IFN) production in human peripheral blood mononuclear cells (hPBMC). It counts as functional. To be noted: read-out: MEC.
`CCCCCCCc1nc2c(N)nc3ccccc3c2n1CC(C)C`: the minimal effective concentration worked out at 1 µg/mL.

As for `Nc1nc2ccccc2c2c1ncn2Cc1ccccc1`, the minimal effective concentration is 0.1 µg/mL.

Regarding `CC(C)Cc1nc2c(N)nc3ccccc3c2n1CC(C)(C)O`, the minimal effective concentration came to 0.01 µg/mL.

On to `CC(C)Cn1cnc2c(N)nc3c(O)cccc3c21`, for which the minimal effective concentration came out at 1 µg/mL.

Turning to `Cc1ccc2c(c1)nc(N)c1ncn(CC(C)C)c12`, the minimal effective concentration was found to be 0.5 µg/mL.

With `Nc1nc2ccccc2c2c1ncn2CC(O)CO` (stereo unspecified), the minimal effective concentration stood at 5 µg/mL.

As for `CCCCc1nc2c(N)nc3ccccc3c2n1CC(C)C`, the minimal effective concentration was 0.01 µg/mL.

Consider `CCc1nc2c(N)nc3ccccc3c2n1CC(C)(C)O`, for which the minimal effective concentration was found to be 0.05 µg/mL.

For `CCn1cnc2c(N)nc3ccccc3c21`, the minimal effective concentration was 0.5 µg/mL.

Consider `CCCCCCn1cnc2c(N)nc3ccccc3c21`, for which the minimal effective concentration turned out to be 0.5 µg/mL.

Regarding `CCCCc1nc2c(N)nc3ccccc3c2n1-c1ccccc1`, the minimal effective concentration was 0.5 µg/mL.

For `COc1ccc2c(c1)nc(N)c1ncn(CC(C)C)c12`, the minimal effective concentration was 1 µg/mL.

Turning to `CC(C)n1cnc2c(N)nc3ccccc3c21`, the minimal effective concentration was 0.5 µg/mL.

As to `CC(C)Cn1c(CCc2ccccc2)nc2c(N)nc3ccccc3c21`, the minimal effective concentration worked out at 1 µg/mL.

For `CCc1nc2c(N)nc3ccccc3c2n1CC(C)C`, the minimal effective concentration worked out at 0.05 µg/mL.

Regarding `CCCn1cnc2c(N)nc3ccccc3c21`, the minimal effective concentration was determined as 0.5 µg/mL.

For `Nc1nc2ccccc2c2c1ncn2CCc1ccccc1`, the minimal effective concentration came out at 0.5 µg/mL.

With `Cc1nc2c(N)nc3ccccc3c2n1CC(C)(C)O`, the minimal effective concentration was found to be 0.05 µg/mL.

Consider `CCCc1nc2c(N)nc3ccccc3c2n1CC(C)C`, for which the minimal effective concentration worked out at 0.05 µg/mL.

`Nc1nc2ccccc2c2c1ncn2CCO`: the minimal effective concentration is 0.5 µg/mL.

Consider `CC(C)(O)Cn1cnc2c(N)nc3ccccc3c21`, for which the minimal effective concentration worked out at 0.5 µg/mL.

For `CCCCn1cnc2c(N)nc3ccccc3c21`, the minimal effective concentration stood at 0.5 µg/mL.

In the case of `CC(O)Cn1cnc2c(N)nc3ccccc3c21` (stereo unspecified), the minimal effective concentration was 0.5 µg/mL.

Take `CCCCCc1nc2c(N)nc3ccccc3c2n1CC(C)C`: the minimal effective concentration is 0.05 µg/mL.

With `Cc1nc2c(N)nc3ccccc3c2n1CC(C)C`, the minimal effective concentration turned out to be 0.05 µg/mL.

Turning to `CCCCCCc1nc2c(N)nc3ccccc3c2n1CC(C)C`, the minimal effective concentration was 0.5 µg/mL.

On to `Nc1[nH]c2ccccc2c2ncnc1-2`, for which the minimal effective concentration is 0.5 µg/mL.

In the case of `Nc1nc2ccccc2c2c1ncn2CCCCc1ccccc1`, the minimal effective concentration stood at 0.1 µg/mL.

Consider `CCCCCn1cnc2c(N)nc3ccccc3c21`, for which the minimal effective concentration was determined as 0.5 µg/mL.

Regarding `CC(C)Cn1c(Cc2ccccc2)nc2c(N)nc3ccccc3c21`, the minimal effective concentration is 0.05 µg/mL.

On to `CC(C)Cn1c(COc2ccccc2)nc2c(N)nc3ccccc3c21`, for which the minimal effective concentration amounted to 0.1 µg/mL.

`CCCCCCCn1cnc2c(N)nc3ccccc3c21`: the minimal effective concentration amounted to 0.5 µg/mL.

In the case of `CC(C)Cn1cnc2c(N)nc3cc(O)ccc3c21`, the minimal effective concentration amounted to 0.5 µg/mL.

As for `Cn1cnc2c(N)nc3ccccc3c21`, the minimal effective concentration was 0.5 µg/mL.

`CC(C)Cn1cnc2c(N)nc3ccccc3c21` [IMIQUIMOD]: the minimal effective concentration amounted to 0.5 µg/mL.
